Source: patent US10590143B2, “Herbicidally active (alkynyl-phenyl)-substituted cyclic dione compounds and derivatives thereof” (Syngenta Limited, priority 2013, dated 2020)
Where two headings read alike, the source gives them in different places.

Assays:
Assay type in all cases: in vivo
[1] = tested on: Brassica napus (BRSNN, rape); experiment: Biological Example 2 glasshouse assay for herbicidal activity; conditions: Brassica napus, 360 h, post-emergence, 14 or 15 DAA, 0.2% v/v X-77, read-out: percentage phytotoxicity BRSNN
Procedure, shortened: (§1)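 Herbicide applied as a spray (IF50 formulation, 0.2% v/v X-77 adjuvant) to soil-grown plants pre-emergence or post-emergence. Ratings were taken 20 DAA or 14–15 DAA respectively, on a 0–100% scale.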

[2] = tested on: Glycine max (GLXMA, soybean); experiment: as above; conditions: post-emergence, 360 h, 14 or 15 DAA, 0.2% v/v X-77, read-out: percentage phytotoxicity GLXMA
Procedure, shortened: as §1

Setaria faberi (SETFA) [3] = experiment: as above; conditions: post-emergence, 360 h, 14 or 15 DAA, 0.2% v/v X-77, read-out: percentage phytotoxicity SETFA
Procedure, shortened: as §1

[4] = tested on: Zea mays (ZEAMX, corn, maize, e.g. volunteer corn); experiment: Biological Example 1 glasshouse assay for herbicidal activity; conditions: Zea mays, 312 h, 13 days after application, read-out: percentage phytotoxicity ZEAMX
Procedure, shortened: (§2)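 Plants grown in sand or sandy loam soil in pots were sprayed one day after sowing (pre-emergence) or after 8 days (post-emergence) with test herbicide in acetone/water (50:50) containing 0.5% Tween 20. Glasshouse at 24/16 °C day/night, 14 h light, 65% humidity; percentage phytotoxicity scored visually after 13 days.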

[5] = tested on: Echinochloa crus-galli (ECHCG); experiment: as above; conditions: Echinochloa crus-galli, 312 h, 13 days after application, read-out: percentage phytotoxicity ECHCG
Procedure, shortened: as §2

[6] = tested on: Alopecurus myosuroides (ALOMY); experiment: as above; conditions: 312 h, 13 days after application, read-out: percentage phytotoxicity ALOMY
Procedure, shortened: as §2

[7] = tested on: Abutilon theophrasti (ABUTH); experiment: as above; conditions: 312 h, 13 days after application, read-out: percentage phytotoxicity ABUTH
Procedure, shortened: as §2

Setaria faberi (SETFA) [8] = experiment: as above; conditions: 312 h, 13 days after application, read-out: percentage phytotoxicity SETFA
Procedure, shortened: as §2

[9] = tested on: Amaranthus retroflexus (AMARE); experiment: as above; conditions: Amaranthus retroflexus, 312 h, 13 days after application, read-out: percentage phytotoxicity AMARE
Procedure, shortened: as §2

Question: `CC#Cc1cc(F)c(C2=C(OC(=O)SCC)C3CCC(C3)C2=O)c(OC)c1` (stereo not drawn) [Compound P4] was tested. Which plant injury at 30 g/ha [1] did it give?
Answer: 50%

Question: What about the plant injury at 250 g/ha [1] of the same compound?
Answer: 80%

Question: What about the plant injury at 30 g/ha [2] of the same compound?
Answer: 10%

Question: And the plant injury at 250 g/ha [2]?
Answer: 20%

Question: And the pest or weed control at 30 g/ha (Setaria faberi (SETFA) [3])?
Answer: 90%

Question: What about the pest or weed control at 250 g/ha (Setaria faberi (SETFA) [3]) of the same compound?
Answer: 100%

Question: And the pest or weed control at 8 g/ha ([4]; post-emergence, post-emergence)?
Answer: 100%

Question: What about the pest or weed control at 30 g/ha ([4]; post-emergence, post-emergence) of the same compound?
Answer: 100%

Question: What about the pest or weed control at 250 g/ha ([4]; post-emergence, post-emergence) of the same compound?
Answer: 100%

Question: And the pest or weed control at 30 g/ha ([4]; pre-emergence, pre-emergence)?
Answer: 90%

Question: And the pest or weed control at 250 g/ha ([4]; pre-emergence, pre-emergence)?
Answer: 100%

Question: And the pest or weed control at 8 g/ha ([5]; post-emergence, post-emergence)?
Answer: 90%

Question: And the pest or weed control at 30 g/ha ([5]; post-emergence, post-emergence)?
Answer: 100%

Question: And the pest or weed control at 250 g/ha ([5]; post-emergence, post-emergence)?
Answer: 100%

Question: What about the pest or weed control at 30 g/ha ([5]; pre-emergence, pre-emergence) of the same compound?
Answer: 100%

Question: And the pest or weed control at 250 g/ha ([5]; pre-emergence, pre-emergence)?
Answer: 100%

Question: What about the pest or weed control at 8 g/ha ([6]; post-emergence) of the same compound?
Answer: 80%

Question: What about the pest or weed control at 30 g/ha ([6]; post-emergence) of the same compound?
Answer: 90%

Question: And the pest or weed control at 250 g/ha ([6]; post-emergence)?
Answer: 90%

Question: And the pest or weed control at 30 g/ha ([6]; pre-emergence)?
Answer: 80%

Question: What about the pest or weed control at 250 g/ha ([6]; pre-emergence) of the same compound?
Answer: 100%

Question: And the pest or weed control at 8 g/ha ([7]; post-emergence, post-emergence)?
Answer: 10%

Question: What about the pest or weed control at 30 g/ha ([7]; post-emergence, post-emergence) of the same compound?
Answer: 20%

Question: What about the pest or weed control at 250 g/ha ([7]; post-emergence, post-emergence) of the same compound?
Answer: 80%

Question: What about the pest or weed control at 30 g/ha ([7]; pre-emergence, pre-emergence) of the same compound?
Answer: 0%

Question: And the pest or weed control at 250 g/ha ([7]; pre-emergence, pre-emergence)?
Answer: 40%

Question: What about the pest or weed control at 8 g/ha (Setaria faberi (SETFA) [8]; post-emergence, post-emergence) of the same compound?
Answer: 70%

Question: And the pest or weed control at 30 g/ha (Setaria faberi (SETFA) [8]; post-emergence, post-emergence)?
Answer: 80%

Question: And the pest or weed control at 250 g/ha (Setaria faberi (SETFA) [8]; post-emergence, post-emergence)?
Answer: 100%

Question: What about the pest or weed control at 30 g/ha (Setaria faberi (SETFA) [8]; pre-emergence, pre-emergence) of the same compound?
Answer: 60%

Question: And the pest or weed control at 250 g/ha (Setaria faberi (SETFA) [8]; pre-emergence, pre-emergence)?
Answer: 90%

Question: What about the pest or weed control at 8 g/ha ([9]; post-emergence, post-emergence) of the same compound?
Answer: 20%

Question: What about the pest or weed control at 30 g/ha ([9]; post-emergence, post-emergence) of the same compound?
Answer: 30%

Question: What about the pest or weed control at 250 g/ha ([9]; post-emergence, post-emergence) of the same compound?
Answer: 20%

Question: And the pest or weed control at 30 g/ha ([9]; pre-emergence, pre-emergence)?
Answer: 30%

Question: And the pest or weed control at 250 g/ha ([9]; pre-emergence, pre-emergence)?
Answer: 60%

Question: `CC#Cc1cc(F)c(C2=C(OC(=O)c3ccccc3)C3CCC(C3)C2=O)c(OC)c1` (stereo not drawn) [Compound P5, [3-(2-fluoro-6-methoxy-4-prop-1-ynyl-phenyl)-4-oxo-2-bicyclo[3.2.1]oct-2-enyl]benzoate] was tested. Which plant injury at 30 g/ha [1] did it give?
Answer: 50%

Question: And the plant injury at 250 g/ha [1]?
Answer: 80%

Question: What about the plant injury at 30 g/ha [2] of the same compound?
Answer: 0%

Question: What about the plant injury at 250 g/ha [2] of the same compound?
Answer: 0%

Question: And the pest or weed control at 30 g/ha (Setaria faberi (SETFA) [3])?
Answer: 80%

Question: And the pest or weed control at 250 g/ha (Setaria faberi (SETFA) [3])?
Answer: 90%

Question: And the pest or weed control at 8 g/ha ([4]; post-emergence, post-emergence)?
Answer: 100%

Question: And the pest or weed control at 30 g/ha ([4]; post-emergence, post-emergence)?
Answer: 100%

Question: What about the pest or weed control at 250 g/ha ([4]; post-emergence, post-emergence) of the same compound?
Answer: 100%

Question: What about the pest or weed control at 30 g/ha ([4]; pre-emergence, pre-emergence) of the same compound?
Answer: 80%

Question: And the pest or weed control at 250 g/ha ([4]; pre-emergence, pre-emergence)?
Answer: 100%

Question: And the pest or weed control at 8 g/ha ([5]; post-emergence, post-emergence)?
Answer: 90%

Question: What about the pest or weed control at 30 g/ha ([5]; post-emergence, post-emergence) of the same compound?
Answer: 100%

Question: What about the pest or weed control at 250 g/ha ([5]; post-emergence, post-emergence) of the same compound?
Answer: 100%

Question: What about the pest or weed control at 30 g/ha ([5]; pre-emergence, pre-emergence) of the same compound?
Answer: 80%

Question: And the pest or weed control at 250 g/ha ([5]; pre-emergence, pre-emergence)?
Answer: 100%

Question: And the pest or weed control at 8 g/ha ([6]; post-emergence)?
Answer: 70%

Question: What about the pest or weed control at 30 g/ha ([6]; post-emergence) of the same compound?
Answer: 90%

Question: And the pest or weed control at 250 g/ha ([6]; post-emergence)?
Answer: 90%

Question: And the pest or weed control at 30 g/ha ([6]; pre-emergence)?
Answer: 70%

Question: And the pest or weed control at 250 g/ha ([6]; pre-emergence)?
Answer: 100%

Question: What about the pest or weed control at 8 g/ha ([7]; post-emergence, post-emergence) of the same compound?
Answer: 0%

Question: What about the pest or weed control at 30 g/ha ([7]; post-emergence, post-emergence) of the same compound?
Answer: 10%

Question: And the pest or weed control at 250 g/ha ([7]; post-emergence, post-emergence)?
Answer: 80%

Question: What about the pest or weed control at 30 g/ha ([7]; pre-emergence, pre-emergence) of the same compound?
Answer: 0%

Question: And the pest or weed control at 250 g/ha ([7]; pre-emergence, pre-emergence)?
Answer: 60%

Question: And the pest or weed control at 8 g/ha (Setaria faberi (SETFA) [8]; post-emergence, post-emergence)?
Answer: 60%

Question: And the pest or weed control at 30 g/ha (Setaria faberi (SETFA) [8]; post-emergence, post-emergence)?
Answer: 80%

Question: And the pest or weed control at 250 g/ha (Setaria faberi (SETFA) [8]; post-emergence, post-emergence)?
Answer: 90%

Question: What about the pest or weed control at 30 g/ha (Setaria faberi (SETFA) [8]; pre-emergence, pre-emergence) of the same compound?
Answer: 60%

Question: And the pest or weed control at 250 g/ha (Setaria faberi (SETFA) [8]; pre-emergence, pre-emergence)?
Answer: 80%

Question: And the pest or weed control at 8 g/ha ([9]; post-emergence, post-emergence)?
Answer: 0%

Question: And the pest or weed control at 30 g/ha ([9]; post-emergence, post-emergence)?
Answer: 0%

Question: What about the pest or weed control at 250 g/ha ([9]; post-emergence, post-emergence) of the same compound?
Answer: 20%

Question: What about the pest or weed control at 30 g/ha ([9]; pre-emergence, pre-emergence) of the same compound?
Answer: 20%

Question: And the pest or weed control at 250 g/ha ([9]; pre-emergence, pre-emergence)?
Answer: 70%
